According to patent US20180153826A1, “MATERIALS AND METHODS FOR THE TREATMENT OF CYSTIC FIBROSIS” (UNIVERSITY OF FLORIDA RESEARCH FOUNDATION, INC., priority 2015, published 2018):

System: Cl^−/HCO3^− exchange
Experiment: Cl^−/HCO3^− exchange activity (Cl^−-dependent HCO3^− secretion)
Design: species or system rat
Details: 10 μM, added to serosal side
Procedure: Stripped mucosal sheets were mounted into Ussing chambers (window area=0.3-0.5 cm^2, Physiologic Instruments, San Diego, Calif.). The mucosal side of tissue was bathed with an unbuffered HCO3^−-free Cl^− Ringer solution (see Table 2 for detailed composition) circulated by a gas lift with 100% O2 while the serosal side was bathed with buffered Cl^− Ringer solution (pH 7.4) that contained 25 mM HCO3^− and gassed with 5% CO2/95% O2. Each side contained 3-5 ml of solution and the temperature of the solution was adjusted to and maintained at 37° C. by heated water-jacketed reservoirs. […]
Two types of approaches were used in the measurement of colonic HCO3^− secretion, namely, measurement of lumen pH or pH stat titration of net alkalinization by colonic mucosa. […] The amount of the acid delivered per unit time per surface area was used to quantitate HCO3^− secretion by the mucosa. Measurements were recorded continuously and mean values for consecutive 5 or 10 min periods were averaged. The rate of HCO3^− secretion (JHCO3) is expressed as μEq/hr/cm^2. The short-circuit current (Isc) was measured in microamperes (μA) and converted into μEq/hr/cm^2. Tissue resistance (R, Ω cm^2) was calculated from Ohm's law. […]

COc1cccc([C@@H](C)NCCCc2ccccc2Cl)c1.Cl [R568, 2-Chloro-N-[(1R)-1-(3-methoxyphenyl)ethyl]-benzenepropanamine hydrochloride]
Cl^−/HCO3^− exchange activity: stimulation
